Experiment [1] deals with cumulus-oocyte complexes (cumulus expansion). In words: cumulus expansion assay in vitro. The experiment is classed as cell-based, mice. The procedure: Folliculogenesis is induced in immature female mice (strain: CD1 (ICR) from Charles River) at an age of 14-18 days by a single dose (intraperitoneal) of 10 I.U. of PMSG (Pregnant Mare Serum Gonadotropine; Sigma G-4877, Lot 68H0909). 47-50 hours after the injection, the ovaries are removed and the cumulus-oocyte complexes are removed. The cumulus complex is not yet expanded at this stage.
The cumulus-oocyte complexes are then incubated with prostaglandin E2 (PGE2) (0.3 μM), vehicle control (ethanol) or test substances for 20-24 hours. Medium: alpha-MEM medium with 0.1 mM IBMX, pyruvates (0.23 mM) glutamines (2 mM), pen/strep 100 IU/ml pen. and 100 μg/ml strep.) and HSA (8 mg/ml)). Cumulus expansion is then established through the division into four stages (according to Vanderhyden et al. Dev Biol. 1990 August; 140 (2):307-317).

Experiment [2] has as its target T1, human prostaglandin E2 (subtype EP2) receptor (Homo sapiens, UniProt P43116).
T1 construct: host or cells: cells in a culture plate
The experiment can be described thus: cAMP antagonism assay. It counts as cell-based. The note with it: in the presence of PGE2. The procedure: (§1) The binding of PGE2 to the EP2 subtype of the human PGE2 receptor induces activation of membrane-associated adenylate cyclases and leads to the formation of cAMP. In the presence of the phosphodiesterase inhibitor IBMX, cAMP which has accumulated due to this stimulation and been released by cell lysis is employed in a competitive detection method. In this assay, the cAMP in the lysate competes with cAMP-XL665 for binding of an Eu cryptate-labelled anti-cAMP antibody.
(§2) The two signals are measured in a suitable measuring instrument with a time lag, i.e. after the background fluorescence has declined.
(§3) The substance solutions (0.75 μl) introduced into an assay plate and 30% DMSO are dissolved in 16 μl of a KRSB+IBMX stimulation solution (1× Krebs-Ringer Bicarbonate Buffer; Sigma-Aldrich # K-4002; including 750 μM 3-isobutyl-1-methylxanthine Sigma-Aldrich # I-7018), and then 15 μl thereof are transferred into a media-free cell culture plate which has been washed with KRSB shortly beforehand.
After preincubation at room temperature (RT) for 30 minutes, 5 μl of a 4×PGE2 solution (11 nM) are added, and incubation is carried out in the presence of the agonist at RT for a further 60 min (volume: ˜20 μl) before the reaction is then stopped by adding 5 μl of lysis buffer and incubated at RT for a further 20 min (volume: ˜25 μl). The cell lysate is then transferred into a measuring plate and measured in accordance with the manufacturer's information (cyclic AMP kit Cisbio International #62AMPPEC).

In experiment [3] the target is T1, human prostaglandin E2 (subtype EP2) receptor. In words: cellular cAMP agonism assay. It counts as cell-based. The procedure: as §1, §2, §3
After incubation at room temperature (RT; volume: ˜15 μl) for 60 minutes, the reaction is then stopped by adding 5 μl of lysis buffer and incubated at RT for a further 20 min (volume: ˜20 μl). The cell lysate is then transferred into a measuring plate and measured in accordance with the manufacturer's information (cyclic AMP kit Cisbio International #62AMPPEC).

This note sets out measurements from US20090042882A1, “SUBSTITUTED ACETAMIDES AS MODULATORS OF THE EP2 RECEPTOR” (priority 2007, published 2009).

Molecules are shown by their SMILES.

T1 sequence (P43116 whole entry): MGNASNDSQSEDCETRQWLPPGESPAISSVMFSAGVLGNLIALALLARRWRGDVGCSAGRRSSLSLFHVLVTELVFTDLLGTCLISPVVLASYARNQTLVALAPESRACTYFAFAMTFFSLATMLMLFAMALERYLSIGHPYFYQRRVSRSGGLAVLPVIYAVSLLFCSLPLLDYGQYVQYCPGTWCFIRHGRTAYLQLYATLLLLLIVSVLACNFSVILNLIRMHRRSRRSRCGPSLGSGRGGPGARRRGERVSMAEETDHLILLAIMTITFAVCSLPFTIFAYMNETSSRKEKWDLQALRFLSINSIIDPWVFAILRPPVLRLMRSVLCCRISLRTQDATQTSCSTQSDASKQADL

With `CC(C)Oc1ccc2c(=O)c3cc(C(=O)O)ccc3oc2c1` [AH 6809, reference compound], the “inhibition of cumulus expansion” value in experiment [1] (concentration 100-200 μM, competing with the natural EP2 receptor agonist PGE2) is on record as about 30%.
By IC50 is commonly meant the concentration that gives 50% inhibition. For the compound `COc1ccc(OCC(=O)NCCc2c(C)[nH]c3c(F)ccc(C)c23)cc1` [Example 1, N-[2-(7-Fluoro-2,4-dimethyl-1H-indol-3-yl)ethyl]2-(4-methoxyphenoxy)acetamide], the IC50 in experiment [2] came out at 1100 nM.
For `Cc1[nH]c2c(F)ccc(C)c2c1CCNC(=O)COc1ccc(Cl)cc1` [Example 6, 2-(4-Chlorophenoxy)-N-[2-(7-fluoro-2,4-dimethyl-1H-indol-3-yl)ethyl]-acetamide], in experiment [1] (concentration 10 μM (10 to 20 times lower than AH 6809), competing with PGE2), the “inhibition of cumulus expansion” value was 30%. Besides, the IC50 in experiment [2] worked out at 1300 nM. Also, the “effect in the cellular agonism test” value in experiment [3] is recorded as “no inhibition”.
As to `Cc1[nH]c2c(F)ccc(C)c2c1CCNC(=O)COc1ccccc1` [Example 5, N-[2-(7-Fluoro-2,4-dimethyl-1H-indol-3-yl)-ethyl]-2-phenoxy-acetamide], the IC50 in experiment [2] was 2700 nM.
